Measurements reported in patent publication US20170371042A1, “CONTRAST AGENT FOR OPTICAL IMAGING, USE THEREOF AND APPARATUS USING THE SAME” (KYUNGPOOK NATIONAL UNIVERSITY INDUSTRY- ACADEMIC …, priority 2009, published 2017).

Experiments:
[1] = cited from earlier work; for Decay mode EC (%): electron capture; for Ece mean: conversion electron
[2] = Luminescence imaging using [^18F]FDG; type: in vivo; conditions: BALB/c mouse bearing luciferase-transfected 4T1 tumour cells, 1 hour after injecting 409 μCi via tail vein, no luciferin
Experimental: A BALB/c mouse with a luciferase-transfected 4T1 tumor was injected with […] of [^18F]FDG via the tail vein. One hour after the injection, the mouse was scanned for 3 minutes in the prone position using IVIS 200. […] The brain (red arrow) and the brown fat (white arrow) are clearly visualized.

[3] = normal mouse (C3H/HeN), 500 μCi intraperitoneally, 40 minutes post-injection
Experimental: 500 mCi of ^124I was injected intraperitoneally into a normal mouse (C3H/HeN, Orient Bio Inc., Korea). 40 minutes after the injection, a luminescence image was obtained by scanning the mouse for 1 minute in the lying position.

Compound	half-life [1]	Decay mode EC (%) [1]	luminescence signal in mouse image [2]	Ece mean [1]	uptake seen in luminescence image [3]	Decay mode IT (%) ([1]; isomeric transition)
OC[C@H]1OC(O)[C@H]([18F])[C@@H](O)[C@@H]1O (stereo partly shown) [^18F, [^18F]FDG]	(110 min)	(3) %	intense signal was detected in the brain and brown fat area on the shoulder	–	–	–
[64Cu+2].[Cl-].[Cl-] [^64Cu, [^64Cu]CuCl2]	(12.7 h)	–	–	–	–	–
[68Ga+3].[Cl-].[Cl-].[Cl-] [^68Ga, [^68Ga]GaCl3]	(68 min)	(11) %	–	–	–	–
[Cl][111In]([Cl])[Cl] [^111In, [^111In]InCl3]	(2.8 d)	(100) %	–	176 keV	–	–
[124I-].[Na+] [^124I, [^124I]NaI]	(4.2 d)	(77) %	–	–	high uptake in the thyroid and bladder region	–
[131I-].[Na+] [^131I, [^131I]NaI]	(8.0 d)	–	–	–	–	–
[^99mTc]TcO4^−	(6.0 h)	–	–	14 keV	–	(100) %
